Results: publication doi:10.1101/2025.10.06.680748v1 (bioRxiv, 2025)

Biological target: T1, Fibroblast Activation Protein Alpha (FAP) (Homo sapiens, UniProt Q12884)
T1 sequence (Q12884 27-760 limits assumed): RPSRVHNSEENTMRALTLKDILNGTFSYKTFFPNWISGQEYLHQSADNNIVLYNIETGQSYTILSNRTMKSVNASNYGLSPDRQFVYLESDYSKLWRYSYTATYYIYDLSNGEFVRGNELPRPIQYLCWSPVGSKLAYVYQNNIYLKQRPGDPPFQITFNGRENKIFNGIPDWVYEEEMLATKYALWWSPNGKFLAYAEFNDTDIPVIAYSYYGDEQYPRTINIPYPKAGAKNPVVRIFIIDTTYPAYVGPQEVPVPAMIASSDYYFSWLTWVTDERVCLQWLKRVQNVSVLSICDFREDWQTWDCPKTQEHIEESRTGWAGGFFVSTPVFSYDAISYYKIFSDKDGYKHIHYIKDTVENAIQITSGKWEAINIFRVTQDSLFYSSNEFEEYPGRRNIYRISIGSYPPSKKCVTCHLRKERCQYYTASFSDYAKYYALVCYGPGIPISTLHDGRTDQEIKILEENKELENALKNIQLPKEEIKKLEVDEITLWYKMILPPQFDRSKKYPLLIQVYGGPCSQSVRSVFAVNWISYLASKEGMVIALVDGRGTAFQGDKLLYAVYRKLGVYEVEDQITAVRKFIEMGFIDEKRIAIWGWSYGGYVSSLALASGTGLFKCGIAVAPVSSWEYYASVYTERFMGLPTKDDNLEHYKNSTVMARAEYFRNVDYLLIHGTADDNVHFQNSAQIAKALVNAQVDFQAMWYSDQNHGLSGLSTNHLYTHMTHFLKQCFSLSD
Assay: FAP substrate kinetics assay with naïve substrate library
Type: biochemical
Conditions: from the observed C-terminal product

In the case of GSFHVPETHSWLVPR [SL11C_008744], the “Dipeptidyl? (substrate product pair cleaved by FAP as dipeptidyl exopeptidase)” value (“Dipeptidyl?” for short) is reported as “No”.
For GSNNGQFNMVPLVPR [SL11C_037297], the “Dipeptidyl?” value was “Yes”.
With GPIMPATVSGGIEGR [SL11B_020678] the “Dipeptidyl?” value was “Yes”.
For GPGVLSEKHAGIEGR [SL11B_022414], the “Dipeptidyl?” value was “Yes”.
